Structures are written as SMILES.

The assay deals with human Gal-3 (hGal-3) (Homo sapiens (Human), UniProt P17931). Description: competitive binding assay: binding of biotinylated hGal-3 to microplate-adsorbed asialofetuin (ASF), spectrophotometric. Conditions: Activity on hGal-3; mean values of several measurements. Summed up: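 Biotinylated hGal-3 (300-1000 ng/mL) bound to ASF-coated wells with serially diluted compound, 3 h at 4° C. After washing, bound protein was detected with streptavidin-peroxidase (80 ng/mL, 1 h, 4° C) and ABTS substrate; IC50 values are means of several measurements.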
Chain of human Gal-3 (hGal-3) (P17931 whole entry): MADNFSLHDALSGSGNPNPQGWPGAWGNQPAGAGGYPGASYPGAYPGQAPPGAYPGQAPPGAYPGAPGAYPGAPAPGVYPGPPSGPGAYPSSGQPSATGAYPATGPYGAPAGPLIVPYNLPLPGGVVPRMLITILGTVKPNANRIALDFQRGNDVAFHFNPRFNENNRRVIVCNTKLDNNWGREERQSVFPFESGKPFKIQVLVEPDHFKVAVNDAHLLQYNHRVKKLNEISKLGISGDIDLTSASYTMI
On to `O=C([C@@H]1O[C@H](CO)[C@H](O)[C@H](n2cc(-c3cc(F)c(F)c(F)c3)nn2)[C@H]1O)N(c1cc(Cl)cc(Cl)c1)[C@H]1CC[C@@H]1O` [Example 2H.1.2, (2R,3R,4S,5R,6R)-N-(3,5-dichlorophenyl)-3,5-dihydroxy-N-((1S,2S)-2-hydroxycyclobutyl)-6-(hydroxymethyl)-4-(4-(3,4,5-trifluorophenyl)-1H-1,2,3-triazol-1-yl)tetrahydro-2H-pyran-2-carboxamide], for which the IC50 (as a rule, the midpoint of a concentration-inhibition curve) stood at 67.5 nM. Then `CO[C@@H]1[C@@H](n2cc(-c3ccc(Cl)cc3)nn2)[C@@H](O)[C@@H](CO)O[C@H]1C(=O)N(c1cc(Cl)cc(C#N)c1)[C@H]1CCC[C@@H]1O` [Example 1.18.4, (2R,3R,4S,5R,6R)-N-(3-chloro-5-cyanophenyl)-4-(4-(4-chlorophenyl)-1H-1,2,3-triazol-1-yl)-5-hydroxy-N-((1S,2S)-2-hydroxycyclopentyl)-6-(hydroxymethyl)-3-methoxytetrahydro-2H-pyran-2-carboxamide], with 90.7 nM; and `CO[C@@H]1[C@@H](n2cc(-c3cc(F)c(F)c(F)c3)nn2)[C@@H](O)[C@@H](CO)O[C@H]1C(=O)N(c1cccc(I)c1)[C@H]1CC[C@@H]1O` [Example 2.1.6, (2R,3R,4S,5R,6R)-5-hydroxy-N-((1S,2S)-2-hydroxycyclobutyl)-6-(hydroxymethyl)-N-(3-iodophenyl)-3-methoxy-4-(4-(3,4,5-trifluorophenyl)-1H-1,2,3-triazol-1-yl)tetrahydro-2H-pyran-2-carboxamide], with 196 nM. Then `CO[C@@H]1[C@@H](n2cc(-c3cc(F)c(F)c(F)c3)nn2)[C@@H](O)[C@@H](CO)O[C@H]1C(=O)N(c1cccc(Br)c1)[C@H]1CCC[C@@H]1O` [Example 1.1.10, (2R,3R,4S,5R,6R)-N-(3-bromophenyl)-5-hydroxy-N-((1S,2S)-2-hydroxycyclopentyl)-6-(hydroxymethyl)-3-methoxy-4-(4-(3,4,5-trifluorophenyl)-1H-1,2,3-triazol-1-yl)tetrahydro-2H-pyran-2-carboxamide], with 78.8 nM; and `CO[C@@H]1[C@@H](n2cc(-c3cc(F)c(F)c(Cl)c3)nn2)[C@@H](O)[C@@H](CO)O[C@H]1C(=O)N(c1cc(Br)cc(C#N)c1)[C@@H]1CC[C@H]1O` [Example 2.7.5R, (2R,3R,4S,5R,6R)-N-(3-bromo-5-cyanophenyl)-4-(4-(3-chloro-4,5-difluorophenyl)-1H-1,2,3-triazol-1-yl)-5-hydroxy-N-((1R,2R)-2-hydroxycyclobutyl)-6-(hydroxymethyl)-3-methoxytetrahydro-2H-pyran-2-carboxamide], with 232 nM. Then `CO[C@@H]1[C@@H](n2cc(-c3ccc(C)c(F)c3F)nn2)[C@@H](O)[C@@H](CO)O[C@H]1C(=O)N(c1cc(Cl)cc(Cl)c1)[C@H]1CCC[C@@H]1O` [Example 1.11.2, (2R,3R,4S,5R,6R)-N-(3,5-dichlorophenyl)-4-(4-(2,3-difluoro-4-methylphenyl)-1H-1,2,3-triazol-1-yl)-5-hydroxy-N-((1S,2S)-2-hydroxycyclopentyl)-6-(hydroxymethyl)-3-methoxytetrahydro-2H-pyran-2-carboxamide], with 15.1 nM.

Compound `CO[C@@H]1[C@@H](n2cc(-c3cc(F)c(F)c(F)c3)nn2)[C@@H](O)[C@@H](CO)O[C@H]1C(=O)N(c1cccc(I)c1)[C@@H]1CCC[C@H]1O` [Example 1.1.6R, (2R,3R,4S,5R,6R)-5-hydroxy-N-((1R,2R)-2-hydroxycyclopentyl)-6-(hydroxymethyl)-N-(3-iodophenyl)-3-methoxy-4-(4-(3,4,5-trifluorophenyl)-1H-1,2,3-triazol-1-yl)tetrahydro-2H-pyran-2-carboxamide] gave an IC50 of 261 nM. As for `CO[C@@H]1[C@@H](n2cc(-c3ccc(Br)c(F)c3F)nn2)[C@@H](O)[C@@H](CO)O[C@H]1C(=O)N(c1cc(F)cc(C#N)c1)[C@H]1CCC[C@@H]1O` [Example 1.12.7, (2R,3R,4S,5R,6R)-4-(4-(4-bromo-2,3-difluorophenyl)-1H-1,2,3-triazol-1-yl)-N-(3-cyano-5-fluorophenyl)-5-hydroxy-N-((1S,2S)-2-hydroxycyclopentyl)-6-(hydroxymethyl)-3-methoxytetrahydro-2H-pyran-2-carboxamide], the figure is 21.2 nM.

With `CO[C@@H]1[C@@H](n2cc(-c3cc(F)cc(Br)c3)nn2)[C@@H](O)[C@@H](CO)O[C@H]1C(=O)N(c1cc(Cl)cc(C#N)c1)[C@H]1CCC[C@@H]1O` [Example 1.10.4, (2R,3R,4S,5R,6R)-4-(4-(3-bromo-5-fluorophenyl)-1H-1,2,3-triazol-1-yl)-N-(3-chloro-5-cyanophenyl)-5-hydroxy-N-((1S,2S)-2-hydroxycyclopentyl)-6-(hydroxymethyl)-3-methoxytetrahydro-2H-pyran-2-carboxamide], the IC50 is 58.3 nM.

`CO[C@@H]1[C@@H](n2cc(-c3cc(F)c(Br)c(F)c3)nn2)[C@@H](O)[C@@H](CO)O[C@H]1C(=O)N(c1cc(F)cc(C#N)c1)[C@@H]1CC[C@H]1O` [Example 2.6.7R, (2R,3R,4S,5R,6R)-4-(4-(4-bromo-3,5-difluorophenyl)-1H-1,2,3-triazol-1-yl)-N-(3-cyano-5-fluorophenyl)-5-hydroxy-N-((1R,2R)-2-hydroxycyclobutyl)-6-(hydroxymethyl)-3-methoxytetrahydro-2H-pyran-2-carboxamide] returned an IC50 of 359 nM. Consider `CO[C@@H]1[C@@H](n2cc(-c3ccc(C)c(F)c3F)nn2)[C@@H](O)[C@@H](CO)O[C@H]1C(=O)N(c1cc(Cl)cc(C#N)c1)[C@H]1CCC[C@@H]1O` [Example 1.11.4, (2R,3R,4S,5R,6R)-N-(3-chloro-5-cyanophenyl)-4-(4-(2,3-difluoro-4-methylphenyl)-1H-1,2,3-triazol-1-yl)-5-hydroxy-N-((1S,2S)-2-hydroxycyclopentyl)-6-(hydroxymethyl)-3-methoxytetrahydro-2H-pyran-2-carboxamide], for which the IC50 turned out to be 21.9 nM.

In the case of `COc1cc(-c2cn([C@H]3[C@@H](O)[C@@H](CO)O[C@@H](C(=O)N(c4cc(C)cc(Br)c4)[C@H]4CCC[C@@H]4O)[C@@H]3OC)nn2)cc(F)c1F` [Example 1.3.12, (2R,3R,4S,5R,6R)-N-(3-bromo-5-methylphenyl)-4-(4-(3,4-difluoro-5-methoxyphenyl)-1H-1,2,3-triazol-1-yl)-5-hydroxy-N-((1S,2S)-2-hydroxycyclopentyl)-6-(hydroxymethyl)-3-methoxytetrahydro-2H-pyran-2-carboxamide], the IC50 was determined as 42.1 nM. For `CC(=O)O[C@@H]1[C@@H](n2cc(-c3cc(F)c(C)c(F)c3)nn2)[C@@H](O)[C@@H](CO)O[C@H]1C(=O)N(c1cc(Cl)cc(C#N)c1)[C@H]1CCC[C@@H]1O` [Example 1A.4.4, (2R,3R,4S,5R,6R)-2-((3-chloro-5-cyanophenyl)((1S,2S)-2-hydroxycyclopentyl)carbamoyl)-4-(4-(3,5-difluoro-4-methylphenyl)-1H-1,2,3-triazol-1-yl)-5-hydroxy-6-(hydroxymethyl)tetrahydro-2H-pyran-3-yl acetate], the 50% inhibitory concentration (IC50) came out at 26.8 nM. As for `CO[C@@H]1[C@@H](n2cc(-c3cc(F)c(F)c(F)c3)nn2)[C@@H](O)[C@@H](CO)O[C@H]1C(=O)N(c1cc(C)cc(Cl)c1)[C@H]1CC[C@@H]1O` [Example 2.1.3, (2R,3R,4S,5R,6R)-N-(3-chloro-5-methylphenyl)-5-hydroxy-N-((1S,2S)-2-hydroxycyclobutyl)-6-(hydroxymethyl)-3-methoxy-4-(4-(3,4,5-trifluorophenyl)-1H-1,2,3-triazol-1-yl)tetrahydro-2H-pyran-2-carboxamide], the figure is 118 nM; as for `CO[C@@H]1[C@@H](n2cc(-c3cc(F)c(Cl)c(Cl)c3)nn2)[C@@H](O)[C@@H](CO)O[C@H]1C(=O)N(c1cc(Cl)cc(C#N)c1)[C@H]1CC[C@@H]1O` [Example 2.17.4, (2R,3R,4S,5R,6R)-N-(3-chloro-5-cyanophenyl)-4-(4-(3,4-dichloro-5-fluorophenyl)-1H-1,2,3-triazol-1-yl)-5-hydroxy-N-((1S,2S)-2-hydroxycyclobutyl)-6-(hydroxymethyl)-3-methoxytetrahydro-2H-pyran-2-carboxamide], 79.2 nM. As for `CO[C@@H]1[C@@H](n2cc(-c3cc(F)c(Cl)c(Cl)c3)nn2)[C@@H](O)[C@@H](CO)O[C@H]1C(=O)N(c1cc(Cl)cc(C#N)c1)[C@@H]1CC[C@H]1O` [Example 2.17.4R, (2R,3R,4S,5R,6R)-N-(3-chloro-5-cyanophenyl)-4-(4-(3,4-dichloro-5-fluorophenyl)-1H-1,2,3-triazol-1-yl)-5-hydroxy-N-((1R,2R)-2-hydroxycyclobutyl)-6-(hydroxymethyl)-3-methoxytetrahydro-2H-pyran-2-carboxamide], the figure is 224 nM; as for `CO[C@@H]1[C@@H](n2cc(-c3cccc(F)c3)nn2)[C@@H](O)[C@@H](CO)O[C@H]1C(=O)N(c1cc(Br)cc(C#N)c1)[C@@H]1CCC[C@H]1O` [Example 1.15.5R, (2R,3R,4S,5R,6R)-N-(3-bromo-5-cyanophenyl)-4-(4-(3-fluorophenyl)-1H-1,2,3-triazol-1-yl)-5-hydroxy-N-((1R,2R)-2-hydroxycyclopentyl)-6-(hydroxymethyl)-3-methoxytetrahydro-2H-pyran-2-carboxamide], 612 nM. Then `CO[C@@H]1[C@@H](n2cc(-c3cc(F)c(Cl)c(Cl)c3)nn2)[C@@H](O)[C@@H](CO)O[C@H]1C(=O)N(c1cc(Cl)cc(C#N)c1)[C@@H]1CCC[C@H]1O` [Example 1.17.4R, (2R,3R,4S,5R,6R)-N-(3-chloro-5-cyanophenyl)-4-(4-(3,4-dichloro-5-fluorophenyl)-1H-1,2,3-triazol-1-yl)-5-hydroxy-N-((1R,2R)-2-hydroxycyclopentyl)-6-(hydroxymethyl)-3-methoxytetrahydro-2H-pyran-2-carboxamide], with 238 nM. `CO[C@@H]1[C@@H](n2cc(-c3ccc(Cl)c(Cl)c3)nn2)[C@@H](O)[C@@H](CO)O[C@H]1C(=O)N(c1cc(Cl)cc(C#N)c1)[C@H]1CC[C@@H]1O` [Example 2.8.4, (2R,3R,4S,5R,6R)-N-(3-chloro-5-cyanophenyl)-4-(4-(3,4-dichlorophenyl)-1H-1,2,3-triazol-1-yl)-5-hydroxy-N-((1S,2S)-2-hydroxycyclobutyl)-6-(hydroxymethyl)-3-methoxytetrahydro-2H-pyran-2-carboxamide]: the IC50 was found to be 131 nM.
